Assay results published in PMC7961094 (The Journal of Biological Chemistry, 2021).
Read-outs that look alike come from different tables or passages of the source.

Experiments:
[1] = target: glutamate dehydrogenase (GDH); assay: 2,4-DNPH oxidative deamination assay with GDH; format: biochemical, thermophilic bacterium species; settings: 0.25 μM GDH; for IC50: 5 mM L-glutamate, 2.5 mM NAD^+, brackets 95% confidence interval
Protocol: Next, we selected two reported GDH inhibitors to assess their IC50 values using the 2,4-DNPH α-KG assay. For these experiments, we held glutamate and NAD^+ at saturating concentrations of 5 mM and 2.5 mM, respectively, while varying the concentrations of inhibitors. Hexachlorophene (HCP) is a noncompetitive inhibitor of GDH that binds to the inner core of the GDH hexamer, thereby preventing the conformational changes necessary for catalytic turnover ([60]). […] Conversely, 2-Methyleneglutarate (2-MG) was selected as a nonaromatic, competitive inhibitor of GDH with respect to L-glutamate ([61]).
Lyophilized GDH was resuspended in a solution of 50 mM Tris-base buffer (pH 8.0) and […]. Each oxidative deamination reaction was carried out in a final volume of 0.5 ml. The cofactor mix was prepared with 50 mM Tris-base buffer (pH 8.0), 1 mM EDTA, 5 mM L-glutamate and 2.5 mM NAD^+ and commenced by adding 0.25 μM GDH. The reaction was allowed to proceed at 50 °C for up to 30 min. During the course of the reaction, 50 μl was withdrawn at various time points from the reaction tube and quenched in 50 μl of 10% TCA at predetermined time points and vortexed. The downstream processing steps are identical to those of the 2,4-DNPH α-KG assay.
(§1) Subsequent measurements were performing at time points conforming to those requirements. Initial velocities at each substrate concentration were fit using linear regression to generate Michaelis–Menten titration curves.
(§2) All data were plotted using GraphPad Prism 8.0 and presented as a mean ± standard deviation of three independent biological replicates, unless otherwise stated. For kinetic data, Km was determined by fitting the data to a least squares ordinary fit Michealis–Menten function, while IC50 values were obtained from fitting the data to a three-parameter log(inhibitor) versus response function. Where applicable, two-tailed t tests were performed to determine statistical significance using a p-value of 0.05.

PHD2_181-426 = PHD2_181-426 (Homo sapiens, UniProt Q9GZT9); assay: 2,4-DNPH α-KG assay with PHD2
Protocol: (§3) During the course of the reaction, 50 μl was withdrawn at various time points from the reaction tube and quenched in 50 μl of 10% TCA at predetermined time points and vortexed.
as §1, §2

PHD3 [2] = target: PHD3 (Homo sapiens, UniProt Q9H6Z9); assay: 2,4-DNPH α-KG assay with PHD3
Protocol: as §3, §1, §2

PHD3 [3] = settings: read-out: Km (app; α-KG), cited from earlier work
PHD2 = settings: read-out: Km (app; α-KG), cited from earlier work

Chain of PHD2_181-426 (Q9GZT9 181-426): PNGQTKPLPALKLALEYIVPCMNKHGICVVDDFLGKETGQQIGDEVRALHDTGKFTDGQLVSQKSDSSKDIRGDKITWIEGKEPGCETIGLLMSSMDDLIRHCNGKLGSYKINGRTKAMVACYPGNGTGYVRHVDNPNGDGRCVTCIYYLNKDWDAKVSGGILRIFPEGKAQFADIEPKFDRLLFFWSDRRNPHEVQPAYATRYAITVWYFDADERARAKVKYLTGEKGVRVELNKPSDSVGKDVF
Chain of PHD3 (Homo sapiens, UniProt Q9H6Z9) (Q9H6Z9 whole entry): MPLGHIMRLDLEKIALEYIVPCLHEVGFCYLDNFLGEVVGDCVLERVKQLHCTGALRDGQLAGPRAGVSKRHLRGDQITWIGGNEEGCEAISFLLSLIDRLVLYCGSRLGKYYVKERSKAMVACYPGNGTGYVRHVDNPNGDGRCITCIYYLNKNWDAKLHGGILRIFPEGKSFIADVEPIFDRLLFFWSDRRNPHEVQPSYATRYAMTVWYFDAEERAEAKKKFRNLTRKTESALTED

C=C(CCC(=O)O)C(=O)O [2-MG, 2-methyleneglutaric acid, reference compound]
IC50 [1]: 24.9 µM | IC50 ([1]; listed as 2-Methyleneglutarate (2-MG)): 24.9 µM

[Cl-].[Cl-].[Co+2] [CoCl2, cobalt (II) chloride, reference compound]
IC50 (PHD2_181-426): 6.4 µM | IC50 (PHD3 [2]; 0.5 mM α-ketoglutarate, 100 μM HIF peptide, 10 μM PHD3, brackets 95% confidence interval): 79.3 µM

Oc1c(Cl)cc(Cl)c(Cl)c1Cc1c(O)c(Cl)cc(Cl)c1Cl [HCP, Hexachlorophene, reference compound]
IC50 [1]: 1.52 µM

NC(=O)c1ccc[n+]([C@@H]2O[C@H](COP(=O)([O-])OP(=O)(O)OC[C@H]3O[C@@H](n4cnc5c(N)ncnc54)[C@H](O)[C@@H]3O)[C@@H](O)[C@H]2O)c1 [NAD^+, nicotinamide adenine dinucleotide]
kcat for NAD^+ ([1]; increasing NAD^+, saturating other reagents): 4.2 ± 0.13 s⁻¹ | Km ([1]; increasing NAD^+, saturating other reagents, read-out: Km for NAD^+): 517 ± 55.8 µM

O=C(O)CNC(=O)C(=O)O [NOG, N-oxalylglycine]
IC50 (PHD3 [2]): 51.3 µM

N[C@@H](CCC(=O)O)C(=O)O [glutamate, L-glutamate]
kcat for glutamate ([1]; increasing L-glutamate, saturating other reagents): 4.47 ± 0.067 s⁻¹ | Km ([1]; increasing L-glutamate, saturating other reagents, read-out: Km for glutamate): 746 ± 58.6 µM

O=C(O)CCC(=O)C(=O)O [α-ketoglutarate]
kcat (α-ketoglutarate titration) (PHD2_181-426): 0.0717 ± 0.005 s⁻¹ | Km (PHD3 [3]; ref Hirsila et al. ([2])): 55 µM | Km (PHD3 [3]; ref Koivunen et al. ([51])): 12 ± 4 µM | Km (PHD3 [3]; ref Oehme et al. ([25])): 3 µM | Km (PHD2; PHD2, ref Dao et al. ([52])): 0.343 ± 0.028 µM | Km (PHD2; PHD2, ref Hirsila et al. ([2])): 60 µM | Km (PHD2; PHD2, ref Koivunen et al. ([51])): 1 ± 0.2 µM | Km (PHD2; PHD2^181–426, ref Ehrismann et al. ([11])): 55 ± 1.1 µM | Km (PHD2; PHD2^181–426, ref McNeill et al. ([10])): 25 ± 6 µM | Km (PHD2; PHD2^181–426, ref Tarhonskaya et al. ([19])): 13 ± 2 µM
